Results from US11679096B1, “Composition and method of treatment of elevated ApoE gene expression related health issues” (priority 2022, dated 2023).

Columns and labels:
[1] = test system: ApoE gene transcripts in Alzheimer disease (AD) fibroblasts; assay: Effects of individual components on ApoE gene transcription in AD fibroblasts (young and old donors, not separated); assay type: cell-based, human; settings: 1 ug/ml, overnight
[2] = test system: ApoE gene transcripts in NHDF; assay: ApoE gene transcription (RT-PCR) in normal human dermal fibroblasts; assay type: cell-based; settings: overnight
[3] = test system: ApoE gene transcripts in AD fibroblasts (AG07887); assay: ApoE gene transcription (RT-PCR) in fibroblasts from young Alzheimer's disease donor; assay type: cell-based, human; settings: with IL1b, Mix 1 at 1 mcg/ml, estradiol 5 nM
Method: (§1) ApoE and iNOS determination: Fibroblasts from Alzheimer disease (AD) […] (AG07887), and […] (AG08629) and/or Normal Human fibroblasts (NHDF) and/or lung cancer cell line A549 were grown on DMEM/F12 without phenol red (Gibco, USA). Media was supplemented with charcoal stripped, sterile-filtered 10% fetal bovine serum (Sigma-Millipore, USA Origen), and 1% penicillin-streptomycin.
(§2) Cells were separated and splatted in 2 cm cell culture dishes and subjected to none or treated with IL-1βat 15 pg/ml, in the presence of Basic Mix (1 μg/ml), Mix 1-1 (1 μg/ml), Mix 1-2 (2 μg/ml), genistein (1 μg/ml), and estrogen E2 (5 nM) as indicated in each experiment. Treated cells were incubated for two hours or overnight followed by RNA isolation and purification for RT-PCR analysis.
(§3) Total RNA was obtained by standard method RNeasy* Plus, (Qiagen, Germany) lysing cells with RLT Plus buffer according to the manufacturer's instructions. Equal amount of RNA extracted from each treated lysate was reverse transcribed in 20 microliters reactions with RT-QuantiTech kit (Qiagen, Germany). […] Amplification in 40 cycles and Ct quantification was carried out in CFX-Connect PCR-system from BioRad. Relative expression of the target gene data was analyzed using delta Ct method and compared to delta Ct of expression of a reference gene. […]

[4] = test system: iNOS gene transcripts in lung cancer cell line A549; assay: iNOS expression (RT-PCR) in lung cancer cells with IL-1β; assay type: cell-based, human
Method: as §1, §2, §3

[5] = test system: ApoE gene transcripts in lung cancer cell line A549; assay: ApoE gene transcription (RT-PCR) in lung cancer cells with IL-1β; assay type: cell-based, human; settings: A549, IL-1 15 pg/ml; Mix 1 4 μg/ml, estrogen 5 nM, genistein 1 μg/ml
Method: as §1, §2, §3

[6] = test system: ApoE gene transcripts in AD fibroblasts (AG08629); assay: ApoE gene transcription (RT-PCR) in fibroblasts from old Alzheimer's disease donor; assay type: cell-based, human; settings: with IL1b, Mix 1 at 1 mcg/ml, Basic Mix 1 ug/ml, estradiol 5 nM
Method: as §1, §2, §3

[7] = test system: MCF7 estrogen-dependent breast cancer cells; assay: In vitro MCF7 cells proliferation (E-SCREEN) assay, MTT; assay type: cell-based, human; settings: β-17-estradiol 0.5 μg/ml, 6 days
Method: In vitro MCF7 cells proliferation (E-SCREEN) assay: MCF-7 cells (1×10^3 cells/well of a 96-well plate) were cultured with different micronutrients and plant extracts (0.5-5 μg/ml) with added β-17-estradiol (0.5 μg/ml) for 6 days at 37° C. Thereafter, medium in each well, including control wells, was replaced with 150 μl of tetrazolium MTT (3-(4, 5-dimethylthiazolyl-2)-2,5-diphenyltetrazolium bromide) ([…]). Wells that received DMSO only were used as negative control whereas that cells that receive only β-17-estradiol were use as positive control. Next, cells were incubated for 3 h at 37° C., the supernatant with MTT was removed, and the adherent cells were rinsed with PBS. Next, 150 μl of isopropanol was added to each well and the absorbance was measured at 570 nm using the microplate reader. Percentage of MTT reduction by metabolically active cell to purple formazan (reflecting cell proliferation rate) was calculated as following equation: Proliferation rate=[(ODsample-ODcontrol)/ODcontrol].
We used MCF7 cancer cells which are epithelial cells isolated from the breast tissue of a patient with metastatic adenocarcinoma and depend on estrogen to proliferate. […]

[8] = pro-inflammatory conditions (IL1b 15 pg/ml)
[9] = normal conditions (without IL1β)
[10] = pro-inflammatory condition (with IL1β)

Compound: O=c1c(-c2ccc(O)cc2)coc2cc(O)ccc12 [Daidzein]
- effect of individual compounds on ApoE transcript [1, 8]: ApoE increasing effects

Compound: Cc1c(C)c2c(c(C)c1O)CC[C@@](C)(CCC[C@H](C)CCC[C@H](C)CCCC(C)C)O2 [Vitamin E, D-alpha-tocopherol]
- effect on ApoE expression [2, 9]: moderate lowering effect

Compound: C[C@]12CC[C@@H]3c4ccc(O)cc4CC[C@H]3[C@@H]1CC[C@@H]2O [estrogen, β-17-estradiol]
- decrease of ApoE transcription [3]: equal to control
- increase of iNOS expression over control ([4]; A549, IL-1 15 pg/ml, estrogen 5 nM): more than 20 times
- effect on ApoE transcripts in human lung cancer cells [5]: inhibitory effect
- decrease of ApoE transcript compared to no treatment control [6]: about 3 times
- MCF7 proliferation rate, higher compared to normal control [7]: about 1.2 folds

Compound: O=c1c(-c2ccc(O)cc2)coc2cc(O)cc(O)c12 [genistein]
- lowering of iNOS transcript ([4]; A549, pro-inflammatory conditions (IL1b), 1 mcg/ml): comparable
- effect on ApoE transcripts in human lung cancer cells [5]: inhibitory effect
- effect of individual compounds on ApoE transcript [1, 8]: slight ApoE lowering effect

Compound: O[C@H]1[C@H](O)[C@@H](O)[C@H](O)[C@@H](O)[C@H]1O [inositol, Inositol]
- effect on ApoE expression [2, 10]: comparable

Compound: O=c1c(O)c(-c2ccc(O)c(O)c2)oc2cc(O)cc(O)c12 [quercetin]
- effect of individual compounds on ApoE transcript ([1]; normal conditions (without IL1b)): lowering effect
- effect of individual compounds on ApoE transcript [1, 8]: ApoE increasing effects

Compound: CC(C)(CO)[C@@H](O)C(=O)NCCC(=O)O [vitamin B5, Pantothenic acid]
- effect on ApoE expression [2, 9]: moderate lowering effect

Compound: phosphatidyl choline
- effect on ApoE expression [2, 10]: comparable
